In ChEMBL document CHEMBL1156230, “Identification of phenylsulfone-substituted quinoxaline (WYE-672) as a tissue selective liver X-receptor (LXR) agonist” (J Med Chem, 2010):
Activity calls are given as the source filed them. The rule behind the calls is not given here.

What was measured:
Mus musculus [1] = assay: Antiatherosclerotic activity against high fat/high cholesterol fed LDLR-deficient mouse assessed as scd1 gene regulation at 0.6 mg/kg administered with diet for 7 days by Experion chip analysis; type: functional, organism-based; design: dose 0.6 mg/kg
Mus musculus [2] = species: Mus musculus; assay: Antiatherosclerotic activity against high fat/high cholesterol fed LDLR-deficient mouse assessed as reduction in plasma triglyceride level; type: functional, organism-based
Mus musculus [3] = assay: Antiatherosclerotic activity against high fat/high cholesterol fed LDLR-deficient mouse duodenum assessed as induction of ABCA1 expression at 0.6 mg/kg administered with diet for 8 weeks; type: functional, organism-based; design: dose 0.6 mg/kg
Mus musculus [4] = assay: Antiatherosclerotic activity against high fat/high cholesterol fed LDLR-deficient mouse duodenum assessed as induction of ABCA1 expression at 3 mg/kg administered with diet for 8 weeks; type: functional, organism-based; design: dose 3 mg/kg
Mus musculus [5] = assay: Antiatherosclerotic activity against high fat/high cholesterol fed LDLR-deficient mouse duodenum assessed as induction of ABCG5 expression at 0.6 mg/kg administered with diet for 8 weeks; type: functional, organism-based; design: dose 0.6 mg/kg
Mus musculus [6] = assay: Antiatherosclerotic activity against high fat/high cholesterol fed LDLR-deficient mouse duodenum assessed as induction of ABCG5 expression at 3 mg/kg administered with diet for 8 weeks; type: functional, organism-based; design: dose 3 mg/kg
Mus musculus [7] = assay: Antiatherosclerotic activity against high fat/high cholesterol fed LDLR-deficient mouse duodenum assessed as induction of ABCG5 expression at 10 mg/kg administered with diet for 8 weeks; type: functional, organism-based; design: dose 10 mg/kg
Mus musculus [8] = assay: Antiatherosclerotic activity against high fat/high cholesterol fed LDLR-deficient mouse duodenum assessed as induction of ABCG8 expression at 3 mg/kg administered with diet for 8 weeks; type: functional, organism-based; design: dose 3 mg/kg
Mus musculus [9] = assay: Antiatherosclerotic activity against high fat/high cholesterol fed LDLR-deficient mouse duodenum assessed as induction of SREBP-1c expression at 10 mg/kg administered with diet for 8 weeks; type: functional, organism-based; design: dose 10 mg/kg
Mus musculus [10] = assay: Antiatherosclerotic activity against high fat/high cholesterol fed LDLR-deficient mouse assessed as apo5 gene regulation at 0.6 mg/kg administered with diet for 7 days by Experion chip analysis; type: functional, organism-based; design: dose 0.6 mg/kg
Mus musculus [11] = assay: Antiatherosclerotic activity against high fat/high cholesterol fed LDLR-deficient mouse assessed as apoe gene regulation at 0.6 mg/kg administered with diet for 7 days by Experion chip analysis; type: functional, organism-based; design: dose 0.6 mg/kg
Mus musculus [12] = assay: Antiatherosclerotic activity against high fat/high cholesterol fed LDLR-deficient mouse assessed as cyp7a1 gene regulation at 0.6 mg/kg administered with diet for 7 days by Experion chip analysis; type: functional, organism-based; design: dose 0.6 mg/kg
Mus musculus [13] = assay: Antiatherosclerotic activity against high fat/high cholesterol fed LDLR-deficient mouse assessed as Fasn gene regulation at 0.6 mg/kg administered with diet for 7 days by Experion chip analysis; type: functional, organism-based; design: dose 0.6 mg/kg
Mus musculus [14] = assay: Antiatherosclerotic activity against high fat/high cholesterol fed LDLR-deficient mouse assessed as apoc1 gene regulation at 0.6 mg/kg administered with diet for 7 days by Experion chip analysis; type: functional, organism-based; design: dose 0.6 mg/kg
Mus musculus [15] = assay: Antiatherosclerotic activity against high fat/high cholesterol fed LDLR-deficient mouse assessed as lipg gene regulation at 0.6 mg/kg administered with diet for 7 days by Experion chip analysis; type: functional, organism-based; design: dose 0.6 mg/kg
Mus musculus [16] = assay: Antiatherosclerotic activity against high fat/high cholesterol fed LDLR-deficient mouse assessed as Irp1 gene regulation at 0.6 mg/kg administered with diet for 7 days by Experion chip analysis; type: functional, organism-based; design: dose 0.6 mg/kg
Mus musculus [17] = assay: Antiatherosclerotic activity against high fat/high cholesterol fed LDLR-deficient mouse assessed as Lipc gene regulation at 10 mg/kg administered with diet for 7 days by Experion chip analysis; type: functional, organism-based; design: dose 10 mg/kg
Mus musculus [18] = assay: Antiatherosclerotic activity against high fat/high cholesterol fed LDLR-deficient mouse assessed as lipg gene regulation at 10 mg/kg administered with diet for 7 days by Experion chip analysis; type: functional, organism-based; design: dose 10 mg/kg
Mus musculus [19] = assay: Antiatherosclerotic activity against high fat/high cholesterol fed LDLR-deficient mouse assessed as Irp1 gene regulation at 10 mg/kg administered with diet for 7 days by Experion chip analysis; type: functional, organism-based; design: dose 10 mg/kg
Mus musculus [20] = assay: Antiatherosclerotic activity against high fat/high cholesterol fed LDLR-deficient mouse assessed as pcsk9 gene regulation at 10 mg/kg administered with diet for 7 days by Experion chip analysis; type: functional, organism-based; design: dose 10 mg/kg
Mus musculus [21] = assay: Antiatherosclerotic activity against high fat/high cholesterol fed LDLR-deficient mouse assessed as scab1 gene regulation at 10 mg/kg administered with diet for 7 days by Experion chip analysis; type: functional, organism-based; design: dose 10 mg/kg
Mus musculus [22] = assay: Antiatherosclerotic activity against high fat/high cholesterol fed LDLR-deficient mouse assessed as scd1 gene regulation at 10 mg/kg administered with diet for 7 days by Experion chip analysis; type: functional, organism-based; design: dose 10 mg/kg
Mus musculus [23] = assay: Antiatherosclerotic activity against high fat/high cholesterol fed LDLR-deficient mouse assessed as abca1 gene regulation at 3 mg/kg administered with diet for 7 days by Experion chip analysis; type: functional, organism-based; design: dose 3 mg/kg
Mus musculus [24] = assay: Antiatherosclerotic activity against high fat/high cholesterol fed LDLR-deficient mouse assessed as cyp7a1 gene regulation at 3 mg/kg administered with diet for 7 days by Experion chip analysis; type: functional, organism-based; design: dose 3 mg/kg
Mus musculus [25] = assay: Antiatherosclerotic activity against high fat/high cholesterol fed LDLR-deficient mouse assessed as Fasn gene regulation at 3 mg/kg administered with diet for 7 days by Experion chip analysis; type: functional, organism-based; design: dose 3 mg/kg
Mus musculus [26] = assay: Antiatherosclerotic activity against high fat/high cholesterol fed LDLR-deficient mouse assessed as apoc1 gene regulation at 3 mg/kg administered with diet for 7 days by Experion chip analysis; type: functional, organism-based; design: dose 3 mg/kg
Mus musculus [27] = assay: Antiatherosclerotic activity against high fat/high cholesterol fed LDLR-deficient mouse assessed as Lipc gene regulation at 3 mg/kg administered with diet for 7 days by Experion chip analysis; type: functional, organism-based; design: dose 3 mg/kg
Mus musculus [28] = assay: Antiatherosclerotic activity against high fat/high cholesterol fed LDLR-deficient mouse assessed as lipg gene regulation at 3 mg/kg administered with diet for 7 days by Experion chip analysis; type: functional, organism-based; design: dose 3 mg/kg
Mus musculus [29] = assay: Antiatherosclerotic activity against high fat/high cholesterol fed LDLR-deficient mouse assessed as Irp1 gene regulation at 3 mg/kg administered with diet for 7 days by Experion chip analysis; type: functional, organism-based; design: dose 3 mg/kg
Mus musculus [30] = assay: Antiatherosclerotic activity against high fat/high cholesterol fed LDLR-deficient mouse assessed as scd1 gene regulation at 3 mg/kg administered with diet for 7 days by Experion chip analysis; type: functional, organism-based; design: dose 3 mg/kg
Mus musculus [31] = assay: Antiatherosclerotic activity against high fat/high cholesterol fed LDLR-deficient mouse assessed as abca1 gene regulation at 10 mg/kg administered with diet for 7 days by Experion chip analysis; type: functional, organism-based; design: dose 10 mg/kg
Mus musculus [32] = assay: Antiatherosclerotic activity against high fat/high cholesterol fed LDLR-deficient mouse assessed as abcg1 gene regulation at 10 mg/kg administered with diet for 7 days by Experion chip analysis; type: functional, organism-based; design: dose 10 mg/kg
Mus musculus [33] = assay: Antiatherosclerotic activity against high fat/high cholesterol fed LDLR-deficient mouse assessed as abcg5 gene regulation at 10 mg/kg administered with diet for 7 days by Experion chip analysis; type: functional, organism-based; design: dose 10 mg/kg
Mus musculus [34] = assay: Antiatherosclerotic activity against high fat/high cholesterol fed LDLR-deficient mouse assessed as abcg8 gene regulation at 10 mg/kg administered with diet for 7 days by Experion chip analysis; type: functional, organism-based; design: dose 10 mg/kg
Mus musculus [35] = assay: Antiatherosclerotic activity against high fat/high cholesterol fed LDLR-deficient mouse assessed as apo5 gene regulation at 10 mg/kg administered with diet for 7 days by Experion chip analysis; type: functional, organism-based; design: dose 10 mg/kg
Mus musculus [36] = assay: Antiatherosclerotic activity against high fat/high cholesterol fed LDLR-deficient mouse assessed as Fasn gene regulation at 10 mg/kg administered with diet for 7 days by Experion chip analysis; type: functional, organism-based; design: dose 10 mg/kg
Mus musculus [37] = assay: Antiatherosclerotic activity against high fat/high cholesterol fed LDLR-deficient mouse assessed as abcg5 gene regulation at 3 mg/kg administered with diet for 8 weeks by Experion chip analysis
Mus musculus [38] = assay: Antiatherosclerotic activity against high fat/high cholesterol fed LDLR-deficient mouse assessed as abcg8 gene regulation at 3 mg/kg administered with diet for 8 weeks by Experion chip analysis

Compound	Activity (Mus musculus [1])	Activity (Mus musculus [2])	Activity (Mus musculus [3])	Activity (Mus musculus [4])	Activity (Mus musculus [5])	Activity (Mus musculus [6])	Activity (Mus musculus [7])	Activity (Mus musculus [8])	Activity (Mus musculus [9])	Activity (Mus musculus [10])	Activity (Mus musculus [11])	Activity (Mus musculus [12])	Activity (Mus musculus [13])	Activity (Mus musculus [14])	Activity (Mus musculus [15])	Activity (Mus musculus [16])	Activity (Mus musculus [17])	Activity (Mus musculus [18])	Activity (Mus musculus [19])	Activity (Mus musculus [20])	also measured
O=C(O)Cc1cccc(OCCCN(Cc2cccc(C(F)(F)F)c2Cl)CC(c2ccccc2)c2ccccc2)c1	Active	inactive	Active	Active	Active	Active	Active	Active	Active	Active	Active	Active	Active	Active	Active	Active	Active	Active	Active	Active	Activity (Mus musculus [21]): Active; Activity (Mus musculus [22]): Active; Activity (Mus musculus [23]): Active; Activity (Mus musculus [24]): Active; Activity (Mus musculus [25]): Active; Activity (Mus musculus [26]): Active; Activity (Mus musculus [27]): Active; Activity (Mus musculus [28]): Active; Activity (Mus musculus [29]): Active; Activity (Mus musculus [30]): Active; Activity (Mus musculus [31]): Active; Activity (Mus musculus [32]): Active; Activity (Mus musculus [33]): Active; Activity (Mus musculus [34]): Active; Activity (Mus musculus [35]): Active; Activity (Mus musculus [36]): Active; Activity (Mus musculus [37]): Active; Activity (Mus musculus [38]): Active
Cc1nc2c(C(F)(F)F)cccc2nc1-c1ccc(-c2cccc(S(C)(=O)=O)c2)cc1	Active	inactive	Active	Active	Active	Active	Active	Active	Active	Active	Active	Active	Active	Active	Active	Active	Active	Active	Active	Active	Activity (Mus musculus [21]): Active; Activity (Mus musculus [22]): Active; Activity (Mus musculus [23]): Active; Activity (Mus musculus [24]): Active; Activity (Mus musculus [25]): Active; Activity (Mus musculus [26]): Active; Activity (Mus musculus [27]): Active; Activity (Mus musculus [28]): Active; Activity (Mus musculus [29]): Active; Activity (Mus musculus [30]): Active; Activity (Mus musculus [31]): Active; Activity (Mus musculus [32]): Active; Activity (Mus musculus [33]): Active; Activity (Mus musculus [34]): Active; Activity (Mus musculus [35]): Active; Activity (Mus musculus [36]): Active; Activity (Mus musculus [37]): Active; Activity (Mus musculus [38]): Active
